Experimental data reported in PMC7806715, “Discovery of small molecules targeting the tandem tudor domain of the epigenetic factor UHRF1 using fragment-based ligand discovery” (Scientific Reports, 2021).

Tests used:
[1] = target: T1, His6-TTD-PHD (aa 123–366) wild type vs. H3K9me3 peptide (Homo sapiens, UniProt Q96T88); assay: TR-FRET assay: His6-TTD-PHD wild type binding to H3K9me3 peptide; type: biochemical
T1 construct: made in house; host or cells: Rosetta (DE3) E. coli, pMCSG7
T1 sequence (Q96T88 123-366): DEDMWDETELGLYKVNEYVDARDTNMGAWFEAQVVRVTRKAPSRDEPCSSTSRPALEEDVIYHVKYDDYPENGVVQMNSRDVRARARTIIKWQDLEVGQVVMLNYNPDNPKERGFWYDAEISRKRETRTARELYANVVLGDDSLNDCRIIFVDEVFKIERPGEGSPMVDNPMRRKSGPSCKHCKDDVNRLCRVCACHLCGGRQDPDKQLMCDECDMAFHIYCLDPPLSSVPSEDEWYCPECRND
Protocol: To test this hypothesis, we generated two TTD-PHD mutants: (1) S298D, which mimics phosphorylation at Ser298 and (2) RR295/296AA, which prevents Arg295 and Arg296 of the TTD-PHD linker from contacting the Arg binding cavity of TTD. […] The fragment screen was carried out on low volume 384-well white plates (Corning 4512) and the assay was performed at room temperature. The TR-FRET reagent mix contained 200 nM of biotinylated-H3K9me3 peptide (Anaspec), 250 nM of His6-TTD, 25 nM of streptavidin-d2 (CisBio), and 1 × anti-6His-Tb cryptate Gold (Cisbio) in TR-FRET buffer (50 mM sodium phosphate, pH 7, 150 mM NaCl, 1 mM DTT, and 0.1% Triton-X-100). During the screen, 5 μl of TR-FRET reagent mix was dispensed into each well, and 100 nl of chemical fragments stock (10 mM in DMSO) was added to each well by pintool using Tecan Freedom Evo liquid handler to make the final compound concentration 196 μM. After 1 h of incubation, the fluorescent signals at 665 nm and 620 nm of each plate were measured by the Tecan Infinite M1000 plate reader (excitation 340 nm, 60 μs lag time, and 500 μs integration time) and the TR-FRET signal was calculated by the ratio of 665 nm/620 nm fluorescent signal. For the fragment screen, on seven of the library plates there were 32-wells of DMSO control, while there were 8-wells of DMSO control in the last plate. The TR-FRET assays for the interactions between His6-TTD-PHD and His6-UHRF1-FL binding to biotinylated-H3K9me3 (1-20) peptide were similar to the assay for His6-TTD. The only difference was that the final concentration of […] assay, while the final concentration of His6-UHRF1-FL was 200 nM and biotin-H3K9me3 peptide was 100 nM for the His6-UHRF1-FL TR-FRET assay. The buffer pH was 7.5 for the His6-TTD-PHD and His6-UHRF1-FL assays. The His6-TTD and His6-TTD-PHD proteins (30 μM) were treated with PKA (P2645, Sigma) at 0.5 U/μl at 30 °C for 1 h in the reaction buffer (50 mM Tris, pH 7.5, 10 mM MgCl2, 0.02% Triton-X-100, 1 mM ATP, 1 mM DTT). The untreated sample was incubated at 30 °C for 1 h in same buffer condition without the addition of PKA. […]

UHRF1-TTD = target: T2, UHRF1-TTD (Homo sapiens, UniProt Q96T88); assay: Thermal shift assay (TSA) of TTD; type: binding; settings: compound at 500 μM; untagged TTD, 150 mM NaCl; mean ± S.D., n=3
T2 construct: Using the isolated His6-TTD (aa 123–283) we performed a thermal shift assay; His6 (N, cleaved yes); made in house; host or cells: Rosetta (DE3) E. coli, pMCSG7
T2 sequence (Q96T88 123-283): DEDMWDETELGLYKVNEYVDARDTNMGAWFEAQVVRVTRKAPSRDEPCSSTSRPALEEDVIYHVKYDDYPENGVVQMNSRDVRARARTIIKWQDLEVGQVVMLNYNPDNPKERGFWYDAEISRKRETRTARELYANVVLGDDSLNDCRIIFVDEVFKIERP
Protocol: We used three different assays in parallel to screen a ~ 2300-fragment library to identify hits that bind to TTD or inhibit its activities. The first screening method was a direct binding assay, which generally serves as the basis for most fragment screening. Using the isolated His6-TTD (aa 123–283) we performed a thermal shift assay (TSA) to determine the change in melting temperature upon fragment binding. The change in protein melting temperature (ΔTm) caused by each fragment was calculated by comparison to the DMSO controls on the same plate.
The fragment screen was carried out on LightCycler 480 Multiwell Plates 384 (Roche). The TSA mix contains 0.15 mg/ml of His6-TTD, 10 × of SYPRO Orange dye (ThermoFisher) in the TSA buffer (50 mM sodium phosphate, pH = 7, 300 mM NaCl). During the screen, 5 µl of TSA mix was dispensed into each well, and 100 nl of chemical fragments stock (10 mM in DMSO) was added to each well by pintool using Tecan Freedom Evo liquid handler to make the final compound concentration 200 µM. After 1 h of incubation at room temperature, the increase of fluorescence at 580 nm (excitation 465 nm) during the 20–90 degree melting (0.04 °C/s) was measured by LightCycler 480 Instrument II (Roche). For the fragment screen, on seven of the library plates there were 32-wells of DMSO control, while there were 8-wells of DMSO control in the last plate. […] Using un-tagged TTD for TSA provide closer resemblance to the native state of TTD. The lower salt concentration (150 mM NaCl) also allowed better comparison across three different assays during the dose-dependent SAR studies as both AlphaScreen and TR-FRET assay also use buffers containing 150 mM NaCl.

SMILES: Cc1ccnc(C)c1 [2,4-lutidine]
- inhibition of His6-TTD-PHD interaction with H3K9me3 peptide (in words) ([1]; dose-response, side by side with His6-TTD): only weakly inhibits
- effect of PKA treatment of His6-TTD-PHD on inhibition of H3K9me3 peptide binding (in words) ([1]; protein treated with PKA and ATP 1 h at 30 °C): improves the ability
- inhibition of binding to H3K9me3 peptide ([1]; wild type TTD-PHD, 2.5 mM 2,4-lutidine): 7.9%
- ΔTm at 500 µM (UHRF1-TTD): 2.04 ± 0.01 °C
